Experimental findings from patent US9510598B2, “Nitrogen-containing heterocyclic compounds for plant disease control” (BAYER CROPSCIENCE AG, priority 2012, dated 2016) are described below.

For one data set, the system named is Septoria tritici. Description: In vivo preventive test on Septoria tritici (leaf spot on wheat). As to conditions: 500 ppm; wheat plants sprayed 24 hours before contamination; grading 21 to 28 days after contamination vs control plants. The method, then: Wheat plants (“Scipion” variety), sown in starter cups on a 50/50 peat soil-pozzolana substrate and grown at 22° C. (12 h)/20° C. (12 h), are treated at the 1-leaf stage (10 cm height) by spraying with the active ingredient prepared as described above. Plants, used as controls, are treated with the mixture of acetone/tween/DMSO/water not containing the active material. After 24 hours, the plants are contaminated by spraying the leaves with an aqueous suspension of cryopreserved Septoria tritici spores (500 000 spores per ml). […] Grading (% of efficacy) is carried out 21 to 28 days after the contamination, in comparison with the control plants.

The format of data set [1] is physicochemical.
Setting [2] is: HPLC on reversed phase columns, method [a]: pH 2.7, 0.1% formic acid in water / acetonitrile, linear gradient 10% to 95% acetonitrile.
The mark [3] stands for this setting: method [a]: HPLC/LC-MS on reversed phase at pH 2.7, 0.1% formic acid in water / acetonitrile, gradient 10% to 95% acetonitrile.
Setting [4] is: method [a]: HPLC/LC-MS on reversed phase at pH 2.7, 0.1% formic acid in water / acetonitrile, linear gradient 10% to 95% acetonitrile.
[5] abbreviates: HPLC on reversed phase columns, method [a]: pH 2.7, 0.1% formic acid in water and acetonitrile, linear gradient 10% to 95% acetonitrile.

Each structure is given as a SMILES string. Like-named read-outs stand apart in the source and are kept apart here.

With `CC(O)C1(C(=O)NCC2COC(C)(C)O2)CC(c2ccc3ncc(Br)cc3c2)=NO1` (mixture of isomers) [compound 555], the “% of efficacy (protection)” value with Septoria tritici is on record as 71%.
Still for that read-out and setting: the same measure for `Cc1cnc(CNC(=O)C2(C(C)O)CC(c3ccc4ncc(Br)cc4c3)=NO2)cn1` (mixture of isomers) [compound 562]: 86%.
Turning to `C#CCCNC(=O)C1(C)CC(c2ccc3ncc(C#C)cc3c2)=NO1` (racemic) [compound 355], the “log P” value in data set [1] (setting [2]) is 2.25[a]. In the data set with Septoria tritici, the “% of efficacy (protection)” value came out at 100%.
For the molecule `C#Cc1cnc2ccc(C3=NOC(C)(C(=O)NCC(OC)OC)C3)cc2c1` (racemic) [compound 366], in data set [1] (setting [3]), the “log P” value was 2.13[a]. For the same molecule, the “% of efficacy (protection)” value with Septoria tritici came out at 100%.
The corresponding values for `CC(C)NC(=O)C1ON=C(c2ccc3ncc(Br)cc3c2)C1C` (racemic) [compound 376] are 2.64[a] and 86%.
In the same order, the values of `CC#Cc1cnc2ccc(C3=NOC(C)(C(=O)NCc4cn(CC)nc4C)C3)cc2c1` (racemic) [compound 378] are 2.35[a] and 97%.
In the same order, the values of `CC(C)ONC(=O)C1(C)CC(c2ccc3ncc(Br)cc3c2)=NO1` (racemic) [compound 388] are 2.44[a] and 100%.
`CCONC(=O)C1(C)CC(c2ccc3ncc(Br)cc3c2)=NO1` (racemic) [compound 389]: in data set [1] (setting [3]), the “log P” value was 2.17[a]. For the same molecule, the “% of efficacy (protection)” value with Septoria tritici is 100%.
The corresponding values for `CC1(C(=O)NC2CCCC2)CC(c2ccc3ncc(Br)cc3c2)=NO1` (racemic) [compound 390] are 3.29[a] and 98%.
With `CC(C)NC(=O)C12CC1C(c1ccc3ncc(Br)cc3c1)=NO2` (racemic) [compound 397], the “log P” value in data set [1] (setting [3]) is 2.82[a]. The “% of efficacy (protection)” value in the data set with Septoria tritici is 75%.
The corresponding values for `C#Cc1cnc2ccc(C3=NOC(C)(C(=S)NCc4cnn(C)c4C)C3)cc2c1` (racemic) [compound 443] are 2.76[a] and 88%.
With `COC1(C(=O)NC(C)C)CC(c2ccc3ncc(Br)cc3c2)=NO1` (single isomer, unassigned) [compound 285], the “log P” value in data set [1] (setting [2]) is 2.57[a]. Further, in the data set with Septoria tritici, the “% of efficacy (protection)” value was found to be 100%.
For `Cc1cc(NC(=O)C2(C)CC(c3cc4cc(Br)cnc4c(F)c3F)=NO2)n(C)n1` (stereo not shown) [compound 18], the “Log P” value in data set [1] (method [a]: HPLC/LC-MS on reversed phase at pH 2.7, 0.1% formic acid in water and acetonitrile, linear gradient 10% to 95% acetonitrile) is 2.6^[a]. Further, in the data set with Septoria tritici, the “% of efficacy (protection)” value is 93%.
For `CCC(C)NC(=O)C1(C)CC(c2cc3cc(Br)cnc3c(OC)c2OC)=NO1` (stereo not shown) [compound 28], in data set [1] (setting [4]), the “log P” value is 3.21^[a]. In the data set on Septoria tritici, the “% of efficacy (protection)” value came to 100%.
Turning to `CCn1cc(CNC(=O)C2(C)CC(c3cc4cc(Br)cnc4c(F)c3OC)=NO2)c(C)n1` (stereo not shown) [compound 29], the “log P” value in data set [1] (setting [4]) was 2.47^[a]. Besides, in the data set on Septoria tritici, the “% of efficacy (protection)” value is recorded as 100%.
In the same order, the values of `CCn1cc(CNC(=O)C2(C)CC(c3cc4cc(Br)cnc4c(OC)c3OC)=NO2)c(C)n1` (stereo not shown) [compound 30] are 2.42^[a] and 100%.
Turning to `CCn1cc(CNC(=O)C2(C)CC(c3ccc4ncc(Cl)cc4c3)=NO2)c(C)n1` (stereo not shown) [compound 54], the “log P” value in data set [1] (setting [4]) was 2.28^[a]. In the data set on Septoria tritici, the “% of efficacy (protection)” value was found to be 100%.
In the same order, the values of `CCn1cc(CNC(=O)C2(Cc3ccccc3)CC(c3ccc4ncc(Br)cc4c3)=NO2)c(C)n1` (stereo not shown) [compound 56] are 3.23^[a] and 70%.
In the same order, the values of `CCOCCCNC(=O)C1(Cc2ccccc2)CC(c2ccc3ncc(Br)cc3c2)=NO1` (stereo not shown) [compound 59] are 3.8^[a] and 70%.
As to `CCn1cc(CNC(=O)C2(C(C)C)CC(c3ccc4ncc(Br)cc4c3)=NO2)c(C)n1` (stereo not shown) [compound 61], the “log P” value in data set [1] (setting [4]) is 2.94^[a]. The “% of efficacy (protection)” value in the data set on Septoria tritici came to 80%.
Take `CC(C)NC(=O)C1(CF)CC(c2ccc3ncc(Br)cc3c2)=NO1` (stereo not shown) [compound 76]: in data set [1] (setting [4]), the “log P” value was 2.46^[a]. In addition, the “% of efficacy (protection)” value with Septoria tritici is reported as 75%.
The corresponding values for `C#Cc1cnc2ccc(C3=NOC(C)(C(=O)NCc4ccc(-c5csnn5)cc4)C3)cc2c1` (stereo not shown) [compound 86] are 2.82^[a] and 75%.
The corresponding values for `CC1(C(=O)NCc2ccccc2)CC(c2ccc3ncc(Br)cc3c2)=NO1` (stereo not shown) [compound 91] are 3.21^[a] and 75%.
In the same order, the values of `CC1(C(=O)NCc2ccc(Cl)nc2)CC(c2ccc3ncc(Br)cc3c2)=NO1` (stereo not shown) [compound 104] are 2.73^[a] and 92%.
For the molecule `Cn1ccc(NC(=O)C2(C(F)(F)F)CC(c3ccc4ncc(Br)cc4c3)=NO2)c1` (stereo not shown) [compound 108], the “log P” value in data set [1] (setting [4]) was 3.5^[a]. The “% of efficacy (protection)” value in the data set with Septoria tritici amounted to 75%.
The corresponding values for `C#Cc1cnc2ccc(C3=NOC(C)(C(=O)NCc4ccc5[nH]ccc5c4)C3)cc2c1` (stereo not shown) [compound 115] are 2.63^[a] and 75%.
The corresponding values for `C#Cc1cnc2ccc(C3=NOC(C)(C(=O)NCC4CCC(C(F)(F)F)CC4)C3)cc2c1` (stereo not shown) [compound 121] are 3.61^[a] and 75%.
The corresponding values for `C#Cc1cc2cc(C3=NOC(C)(C(=O)NC(C)C)C3)ccc2nc1OC` (stereo not shown) [compound 133] are 3.09^[a] and 100%.
For the molecule `C#Cc1cc2cc(C3=NOC(C)(C(=O)NC(C)C)C3)ccc2nc1Cl` (stereo not shown) [compound 134], the “log P” value in data set [1] (setting [4]) was 3.08^[a]. Moreover, the “% of efficacy (protection)” value in the data set with Septoria tritici amounted to 71%.
In the same order, the values of `CCn1cc(CNC(=O)C2(CBr)CC(c3ccc4ncc(Br)cc4c3)=NO2)c(C)n1` (stereo not shown) [compound 137] are 2.62^[a] and 93%.
In the same order, the values of `CCn1cc(CNC(=O)C2(CCl)CC(c3ccc4ncc(Br)cc4c3)=NO2)c(C)n1` (stereo not shown) [compound 138] are 2.56^[a] and 93%.
In the same order, the values of `CC(C)NC(=O)C1(C)CC(c2ccc3ncccc3c2)=NO1` (stereo not shown) [compound 143] are 1.44^[a] and 71%.
As for `CCn1cc(CNC(=O)C2(C)CC(c3ccc4ncc(C#C[Si](C)(C)C)cc4c3)=NO2)c(C)n1` (stereo not shown) [compound 149], the “log P” value in data set [1] (setting [4]) is 3.79^[a]. For the same molecule, in the data set with Septoria tritici, the “% of efficacy (protection)” value amounted to 93%.
Regarding `CC1(C(=O)NC(C)(C#N)C2CC2)CC(c2ccc3ncc(Br)cc3c2)=NO1` (stereo not shown) [compound 301], the “% of efficacy (protection)” value in the data set on Septoria tritici is listed as 80%.
In the case of `CC1(C(=O)NCc2ccncc2F)CC(c2ccc3ncc(Br)cc3c2)=NO1` (stereo not shown) [compound 811], in data set [1] (setting [5]), the “log P” value is 2.27[a].
Same read-out and setting: the same measure for `C#Cc1cnc2ccc(C3=NOC(C)(C(=O)NCc4cccnc4C#N)C3)cc2c1` (stereo not shown) [compound 812]: 1.70[a]; for `C#Cc1cnc2ccc(C3=NOC(C)(C(=O)NCC4CC(F)(F)C4)C3)cc2c1` (stereo not shown) [compound 813]: 2.71[a].
Consider `CC1(C(=O)NCc2cccnc2C#N)CC(c2ccc3ncc(Br)cc3c2)=NO1` (stereo not shown) [compound 814], for which the “log P” value in data set [1] (setting [5]) is 1.91[a].
On the same count and under the same terms, under `CC1(C(=O)N(Cc2cc(F)cc3c2C(C)(C)CCC3)C2CC2)CC(c2ccc3ncc(Br)cc3c2)=NO1` (stereo not shown) [compound 815] stands 6.11[a].
